Reference: ChEMBL document CHEMBL2311342, “Inhibitors of the Yersinia protein tyrosine phosphatase through high throughput and virtual screening approaches” (Bioorg Med Chem Lett, 2013)

Test: Inhibition of Yersinia pestis YopH catalytic domain (residues 163-468) using pNPP substrate

**Q.** With `O=C(O)c1ccc(N2C(=O)c3ccc(-c4nc5ccccc5c(=O)o4)cc3C2=O)cc1` as the molecule, how does the IC50 read?
**A.** 1.92 µM

**Q.** With `Cn1nc(-c2cccs2)nc2c(=O)n(C)c(=O)nc1-2` as the molecule, how does the IC50 read?
**A.** 0.88 µM

**Q.** For `O=C(O)c1ccc(-c2nc(-c3ccc(-c4ccccc4)cc3)c(-c3ccc(-c4ccccc4)cc3)[nH]2)cc1`, which IC50 is on record?
**A.** 2.15 µM

**Q.** With `O=C1Nc2ccc(Br)cc2/C1=C1/SC(=S)N(c2cccc(C(F)(F)F)c2)C1=O` as the molecule, how does the IC50 read?
**A.** 1.22 µM

**Q.** With `CN1C(=O)C(=Cc2ccc(OCc3c(F)cccc3Cl)cc2)C(=O)N(C)C1=O` as the molecule, how does the IC50 read?
**A.** 9.89 µM

**Q.** For `Cn1nc(-c2ccc(Cl)cc2)nc2c(=O)n(C)c(=O)nc1-2`, which IC50 is on record?
**A.** 1.28 µM

**Q.** For `COc1cc(/C=C2/N=C(c3ccc(Cl)c(Cl)c3)OC2=O)cc(OC)c1OC`, which IC50 is on record?
**A.** 4.48 µM

**Q.** With `Cc1c(/C(=N/OC(=O)c2ccc(F)cc2)C(F)(F)F)cc(-c2ccc(S(C)(=O)=O)cc2)n1-c1ccc(F)cc1` as the molecule, how does the IC50 read?
**A.** 2.35 µM

**Q.** For `CCCCN1C(=O)/C(=C2\SC(N3CCC(C(N)=O)CC3)=NC2=O)c2ccccc21`, which IC50 is on record?
**A.** 1.68 µM

**Q.** Which IC50 does the source give for `O=C1NC(=O)C(=Cc2ccc(OCc3ccc([N+](=O)[O-])cc3)c(Br)c2)C(=O)N1` here?
**A.** 1.89 µM

**Q.** For `Cc1c(N=c2c(=O)c3ccccc3c2=O)c(=O)n(-c2ccccc2)n1C`, which IC50 is on record?
**A.** 4.01 µM

**Q.** With `O=C1NC(=S)NC(=O)C1=Cc1ccc(N2CCc3ccccc3C2)c([N+](=O)[O-])c1` as the molecule, how does the IC50 read?
**A.** 4.73 µM

**Q.** With `O=C(O)c1cc(-c2ccc(/C=N/Nc3nc4nonc4nc3Nc3ccc(F)cc3)o2)ccc1O` as the molecule, how does the IC50 read?
**A.** 0.38 µM

**Q.** For `O=C(COc1ccccc1)N1CCN(S(=O)(=O)c2ccccc2[N+](=O)[O-])CC1`, which IC50 is on record?
**A.** 0.98 µM

**Q.** For `CN1C(=O)C(=Cc2cn(Cc3cnc(Cl)s3)c3ccccc23)C(=O)N(C)C1=O`, which IC50 is on record?
**A.** 4.61 µM

**Q.** Which IC50 does the source give for `O=C1OC(c2ccc(Cl)cc2)=N/C1=C/Nc1ccc(O)c(C(=O)O)c1` here?
**A.** 8.1 µM

**Q.** Which IC50 does the source give for `NC(=S)N1N=C(c2ccc([N+](=O)[O-])cc2)/C(=N\Nc2ccc(S(=O)(=O)O)cc2)C1=O` here?
**A.** 4.61 µM
